Data: patent US6350749B1, “Aminoguanidine hydrazone derivatives, process for producing the same and drugs thereof” (Takeda Chemical Industries, Ltd., priority 1998, dated 2002)
Where a name gives a salt, the structure may show the parent alone. Read-outs that look alike come from different tables or passages of the source.

Tests used:
Na—H exchange = target: T1, Na—H exchange (Rattus norvegicus, UniProt P26431); assay: Rat platelet swelling in sodium propionate solution (light transmittance of PRP), inhibition of Na—H exchange; type: cell-based; details: for inhibition at 0.1 µM: 1 min, read-out: Inhibition Rate (%) [10^−7 M]
T1 construct: The blood was centrifuged at 3000 rpm for 5 seconds to obtain platelet rich plasma (PRP); from tissue; host or cells: platelets in platelet rich plasma from abdominal aortic blood of male Wistar rats
T1 sequence (P26431 whole entry): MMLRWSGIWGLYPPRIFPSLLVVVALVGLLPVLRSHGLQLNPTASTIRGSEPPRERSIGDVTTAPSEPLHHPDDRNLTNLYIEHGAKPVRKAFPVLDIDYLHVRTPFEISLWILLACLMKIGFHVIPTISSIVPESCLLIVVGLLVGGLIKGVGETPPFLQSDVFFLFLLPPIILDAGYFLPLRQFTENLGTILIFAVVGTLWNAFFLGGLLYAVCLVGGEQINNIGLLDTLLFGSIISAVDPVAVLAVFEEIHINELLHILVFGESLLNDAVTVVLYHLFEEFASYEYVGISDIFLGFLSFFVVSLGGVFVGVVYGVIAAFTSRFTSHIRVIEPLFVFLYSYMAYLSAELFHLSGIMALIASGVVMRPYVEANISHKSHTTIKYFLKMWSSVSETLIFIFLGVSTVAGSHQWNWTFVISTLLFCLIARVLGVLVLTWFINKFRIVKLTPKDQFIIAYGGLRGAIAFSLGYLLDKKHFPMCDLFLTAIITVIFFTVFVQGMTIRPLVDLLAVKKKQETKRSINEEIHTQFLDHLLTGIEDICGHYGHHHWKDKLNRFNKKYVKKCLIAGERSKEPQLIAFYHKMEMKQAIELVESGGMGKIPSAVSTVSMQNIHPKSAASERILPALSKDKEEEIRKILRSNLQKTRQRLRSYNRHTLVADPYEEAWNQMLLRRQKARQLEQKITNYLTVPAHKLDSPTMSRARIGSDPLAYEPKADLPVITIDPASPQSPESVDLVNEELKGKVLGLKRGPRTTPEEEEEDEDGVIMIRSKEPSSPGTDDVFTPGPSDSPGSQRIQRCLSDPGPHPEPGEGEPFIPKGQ
Description: Male Wistar rats (350-450 g) were anesthetized with sodium pentobarbital (50 mg/kg, i.p.). Using a disposable syringe pre-filled with 1.5 ml of 3.8% citric acid solution, 8.5 ml of blood was collected from the abdominal aorta. The blood was centrifuged at 3000 rpm for 5 seconds to obtain platelet rich plasma (PRP). The number of platelets in the PRP was counted by an automatic hemocytometer (Sysmex 2500, TOA Medical Electronics). The PRP was diluted with physiological saline to make the concentration of 40×10^4 platelets per 1 μl. A platelet aggregometer (Hematoracer, Niko Bioscience) was used for measurement of the platelet swelling. 200 μl of the PRP was poured into a cuvette and 600 μl of sodium propionate solution (Na propionate 135, glucose 10, Hepes 20, CaCl2 1, MgCl2 1; Units: mM; pH6.7) was added while stirring at 37° C. The change in the light transmittance of PRP which was an indicator of the platelet swelling was recorded on a plotter. The test compound was added 3 minutes before addition of the sodium propionate solution. The test compounds were dissolved in dimethylsulfoxide (DMSO).

[1] = test compound 10^−7 M, rat platelet rich plasma, value 1 minute after sodium propionate solution, 100% = difference between 1% DMSO and HOE-642 (10^−5M)

SMILES	melting point	inhibition at 0.1 µM (Na—H exchange; [1]) [%]	inhibition at 0.1 µM (Na—H exchange) [%]	Inhibition Rate (%) [10^−7 M] (Na—H exchange; [1]) [%]
Cc1ccccc1C1CC(=NNC(=N)N)c2c(C)c[nH]c2C1.Cl (stereo not shown) [Compound 6, 4-guanidinoimino-3-methyl-6-(2-methylphenyl)-4,5,6,7-tetrahydroindole hydrochloride]	187 °C (dec.)	86		
Cc1ccnc2c1C(=NNC(=N)N)CC(c1ccccc1F)C2 (stereo not shown) [Compound 59, 7-(2-fluorophenyl)-5-guanidinoimino-4-methyl-5,6,7,8-tetrahydroquinoline hydrochloride]		72		
Cc1ccnc2c1C(=NNC(=N)N)CC(c1cc(Cl)sc1Cl)C2 (single isomer, unassigned; (-)) [Compound 109, (−)-7-(2,5-dichlorothiophen-3-yl)-5-guanidinoimino-4-methyl-5,6,7,8-tetrahydroquinoline hydrochloride]			91	
Cc1cnnc2c1C(=NNC(=N)N)CC(c1cc(Cl)sc1Cl)C2.Cl (stereo not shown) [Compound 131, 7-(2,5-dichlorothiophen-3-yl)-5-guanidinoimino-4-methyl-5,6,7,8-tetrahydrocinnoline hydrochloride]	≥ 300 °C	88		
CCc1cnnc2c1C(=NNC(=N)N)CC(c1ccccc1Cl)C2.CS(=O)(=O)O (stereo not shown) [Compound 133, 7-(2-chlorophenyl)-5-guanidinoimino-4-ethyl-5,6,7,8-tetrahydrocinnoline methanesulfonate]	244 to 245 °C (dec.)	87		
CS(=O)(=O)O.Cc1ccnc2c1C(=NNC(=N)N)CC(c1ccccc1Cl)C2 (single isomer, unassigned; (-)) [Compound 64, (−)-7-(2-chlorophenyl)-5-guanidinoimino-4-methyl-5,6,7,8-tetrahydroquinoline methanesulfonate]	194 to 195 °C	86		
Cc1n[nH]c2c1C(=NNC(=N)NO)CC(c1ccccc1Cl)C2.Cl (stereo not shown) [Compound 93, 6-(2-chlorophenyl)-4-(1-hydroxyguanidin-3-yl)imino-3-methyl-4,5,6,7-tetrahydroindazole hydrochloride]	234 to 235 °C (dec.)	69		
Cc1ccnc2c1C(=NNC(=N)N)CC(c1ccccc1O)C2.Cl (stereo not shown) [Compound 68, 5-guanidinoimino-7-(2-hydroxyphenyl)-4-methyl-5,6,7,8-tetrahydroquinoline hydrochloride]	161 °C (dec.)	70		
Cc1ccnc2c1C(=NNC(=N)N)CC(c1ccsc1Br)C2.Cl (stereo not shown) [Compound 123, 7-(2-bromothiophen-3-yl)-5-guanidinoimino-4-methyl-5,6,7,8-tetrahydroquinoline hydrochloride]	243 to 245 °C	81		
Cc1n[nH]c2c1C(=NNC(=N)N)CC(c1cc(Cl)sc1Cl)C2.Cl (stereo not shown) [Compound 127, 6-(2,5-dichlorothiophen-3-yl)-4-guanidinoimino-3-methyl-4,5,6,7-tetrahydroindazole hydrochloride]	≥ 300 °C	98		
Cc1cnnc2c1C(=NNC(=N)N)CC(c1ccccc1Cl)C2.Cl (stereo not shown) [Compound 129, 7-(2-chlorophenyl)-5-guanidinoimino-4-methyl-5,6,7,8-tetrahydrocinnoline hydrochloride]	241 to 243 °C	80		
Cc1ccsc1C1CC(=NNC(=N)N)c2c(C)ccnc2C1.Cl (stereo not shown) [Compound 73, 5-guanidinoimino-4-methyl-7-(3-methyl-2-thienyl)-5,6,7,8-tetrahydroquinoline hydrochloride]	184 to 187 °C	76		
Cc1n[nH]c2c1C(=NNC(=N)N)CC(c1ccccc1Cl)C2 (stereo not shown) [Compound 21, 4-guanidinoimino-6-(2-chlorophenyl)-3-methyl-4,5,6,7-tetrahydroindazole hydrochloride]		72		
Cc1ccnc2c1C(=NNC(=N)N)CC(c1ccccc1Cl)C2.Cl (stereo not shown) [Compound 61, 7-(2-chlorophenyl)-5-guanidinoimino-4-methyl-5,6,7,8-tetrahydroquinoline hydrochloride]	204 °C (dec.)			78
Cc1n[nH]c2c1C(=NNC(=N)N)CC(c1sccc1Cl)C2.Cl (stereo not shown) [Compound 119, 6-(3-chloro-2-thienyl)-4-guanidinoimino-3-methyl-4,5,6,7-tetrahydroindazole hydrochloride]	204 °C (dec.)	100		
Cc1ccnc2c1C(=NNC(=N)N)CC(c1sccc1Cl)C2.Cl (stereo not shown) [Compound 74, 7-(3-chloro-2-thienyl)-5-guanidinoimino-4-methyl-5,6,7,8-tetrahydroquinoline hydrochloride]	203 °C (dec.)	98		
Cc1coc2c1C(=NNC(=N)N)CC(c1cccs1)C2.Cl (stereo not shown) [Compound 48, 4-guanidinoimino-3-methyl-6-(2-thienyl)-4,5,6,7-tetrahydrobenzofuran hydrochloride]	285 °C (dec.)	70		
CS(=O)(=O)O.Cc1ccnc2c1C(=NNC(=N)N)CC(c1cc(Cl)sc1Cl)C2 (single isomer, unassigned; (-)) [Compound 113, (−)-7-(2,5-dichlorothiophen-3-yl)-5-guanidinoimino-4-methyl-5,6,7,8-tetrahydroquinoline methanesulfonate]	229 to 231 °C	100		
Cc1n[nH]c2c1C(=NNC(=N)NO)CC(c1cc(Cl)sc1Cl)C2.Cl (stereo not shown) [Compound 128, 6-(2,5-dichlorothiophen-3-yl)-4-(1-hydroxyguanidin-3-yl)imino-3-methyl-4,5,6,7-tetrahydroindazole hydrochloride]	190 to 192 °C (dec.)	78		
CCc1cnnc2c1C(=NNC(=N)N)CC(c1cc(Cl)sc1Cl)C2 (stereo not shown) [Compound 134, 7-(2,5-dichlorothiophen-3-yl)-4-ethyl-5-guanidinoimino-5,6,7,8-tetrahydrocinnoline methanesulfonate]		83		
CCOc1ccnc2c1C(=NNC(=N)N)CC(c1ccccc1Cl)C2 (stereo not shown) [Compound 80, 7-(2-chlorophenyl)-4-ethoxy-5-guanidinoimino-5,6,7,8-tetrahydroquinoline hydrochloride]		75		
CCc1n[nH]c2c1C(=NNC(=N)N)CC(c1ccccc1Cl)C2.Cl (stereo not shown) [Compound 27, 6-(2-chlorophenyl)-3-ethyl-4-guanidinoimino-4,5,6,7-tetrahydroindazole hydrochloride]	196 to 200 °C	76		
COc1ccnc2c1C(=NNC(=N)N)CC(c1ccccc1Cl)C2.CS(=O)(=O)O (stereo not shown) [Compound 79, 7-(2-chlorophenyl)-5-guanidinoimino-4-methoxy-5,6,7,8-tetrahydroquinoline methanesulfonate]	158 to 159 °C	77		
Cc1ccnc2c1C(=NNC(=N)N)CC(c1cccs1)C2.Cl (stereo not shown) [Compound 70, 5-guanidinoimino-4-methyl-7-(2-thienyl)-5,6,7,8-tetrahydroquinoline hydrochloride]	225 °C (dec.)	81		
